Results taken from US20210330756A1, “Acetylation of Miro1” (University of South Carolina, priority 2020, published 2021).

What was measured:
[1] = tested on: axonal mitochondria of DRG neurons; assay: Live cell imaging of axonal mitochondrial movement in cultured DRG neurons; assay type: cell-based, rat
Excerpt: HDAC6 inhibition was previously shown to increase transport of mitochondria in axons of embryonic rodent hippocampal and chick sensory neurons (Chen et al., 2010; Kim et al., 2012; Rui and Zheng, 2016; Sainath et al., 2017), and axonal mitochondrial transport has been linked to axon growth (Steketee et al., 2012; Cartoni et al., 2016; Lewis et al., 2016; Zhou et al., 2016). By live cell imaging with MitoTracker to visualize mitochondria, DRG neurons appeared to show increased anterograde versus retrograde mitochondrial movement along axons (FIG. 3 at A and B). […] (A and B) Representative images from CALI time lapse sequence are shown for DRGs cultured on laminin and treated with vehicle control (DMSO) versus 10 μM TubA for 1 h (A). BFP is shown in blue as an axonal marker and Mito-KR signal is shown in red. Boxed regions represent ROI for distal axon and growth cone that was subjected to photoactivation of Mito-KR to ablate mitochondria. […] (C and D) Quantifications of percentage of axons retracting (C) and retraction distance (D) from image sequences as in A are shown as average±SEM (n≥13 across three culture preparations; ***, P≤0.005 by one-way ANOVA with Bonferroni post hoc analysis). (E) Recovery of Mito-KR red fluorescence in photoactivated ROI from image sequences as in A is shown as average of normalized percentage recovery±SEM (n≥13 axons from three independent experiments; *, P≤0.05; **, P≤0.01; ***, P≤0.005 vs. t=0; ###, P≤0.005; ####, P≤0.001, #####, P≤0.0005 for TubA vs. control; and NS vs. t=0 s by one-way ANOVA with Bonferroni post hoc analysis). […]
Quantification of growth cone mitochondria was performed using high-magnification images from living neurons transfected with either Mito-KR or incubated with MitoTracker. […] Only mitochondria that could be distinguished as a single mitochondrion were counted; if this was not possible, that growth cone was not included in the analysis. […]
Vesicle trafficking was quantified using differential ImageJ Difference Tracker Plug-in (Andrews et al., 2010). […] Movement of ≥0.5 μm toward the axon shaft was counted as retracted. […]

[2] = tested on: growth cones of DRG neurons; assay: Growth cone retraction after bath-applied growth inhibitors; assay type: cell-based, rat; settings: 10 μM TubA
Excerpt: MAG and CSPGs are more often tested as surface-bound substrates than with the bath applications used here. Thus, we tested whether bath application of growth inhibitors would cause growth cone retraction in a manner similar to surface-bound inhibitors. […] RhoA activation is a well-known downstream mediator for the growth-inhibitory effects of both MAG and CSPGs (Fujita and Yamashita, 2014), so we tested whether the RhoA/ROCK pathway contributes to the impact of aggregan on mitochondria distribution in growth cones.
MAG or Aggrecan exposures were performed as bath application or on coated substrates. For bath application, dissociated DRGs were cultured for 48 h and treated with 25 μg/ml of MAG-Fc (R&D Systems; 538-MG), 25 μg/ml Fc control (R&D Systems; 110-HG), or 10 μg/ml of Aggrecan (Sigma-Aldrich; A1960) for 4 h. Cultures were pretreated with either Ca^2+ chelator BAPTA-AM (3 μM; Sigma-Aldrich; A1076), ROCK inhibitor Y27632 (10 μM; Sigma-Aldrich; SCM075), HDAC6 inhibitor TubA (10 μM; R&D Systems; 6270), Thapsigargin (1 μM; Sigma-Aldrich; T9033), Rho Activator II (1 μg/ml; Cytoskeleton; CNO3), or equivalent volume DMSO 30 min before MAG-Fc, Aggrecan, or controls. For substrate-bound experiments, adult DRGs were cultured on glass bottom dishes (Greiner) that were coated with 25 μg/ml Aggrecan in addition to the laminin/poly-D-lysine substrate.

SMILES: CN1CCc2c(c3ccccc3n2Cc2ccc(C(=O)NO)cc2)C1 [TubA, tubastatin]
- mitochondrial profiles in growth cones ([1]; 10 μM TubA, 1 h vs vehicle): significant increase in mitochondrial profiles in the growth cones
- speed, track durations, directionality of axonal mitochondrial movements ([1]; HDAC6-inhibited (10 μM TubA) vs control, laminin): no significant differences
- anterogradely vs retrogradely moving mitochondria in axons ([1]; HDAC6-inhibited cultures): more anterogradely than retrogradely moving mitochondria
- effect on aggrecan-induced growth cone retraction [2]: prevented by application of TubA
